PMC4443670, “The C-terminal region of the motor protein MCAK controls its structure and activity through a conformational switch” (eLife, 2015)
Entries after “also recorded” stand apart in the source; their conditions may differ. Ends that are not written are not given here.

What was measured:
MCAK motor domain [1] = molecular target: T1, MCAK motor domain (Homo sapiens, UniProt Q99661); test: X-ray crystal structure of motor domain with CT peptide (PDB 4UBF)
T1 construct: His-MCAK (183–583, M) and His-MCAK (1–583, NM) were subcloned in pET3aTr vector; made in house; host or cells: E. coli BL21(DE3) Codon plus
Method: 1 mM MCAK motor domain (PDB:2HEH, Addgene, Cambridge MA, USA) was incubated with the CT peptide 709[…]720 (China peptides Co, Ltd, China) in a ratio of 1:2 for 1 hr at 4°C before setting up crystallization trials. Elongated rectangular crystals appeared by vapor diffusion after two days in sitting drops using 24% wt/vol PEG 1500 and 20% vol/vol Glycerol as a precipitant. Crystals were grown in MRC 2 Well Crystallization Plate (Hampton Research, Aliso Viejo, CA, USA) at 19°C. Crystals were cryoprotected in a solution containing 28% wt/vol PEG 1500 and 30% vol/vol Glycerol and flash-frozen in dry liquid nitrogen.
Diffraction data were recorded at Diamond Light Source on beamline ID24 at 100 K. Data were processed using XDS package ([Kabsch, 2010]) and SCALA operated through the CCP4 suite GUI ([Collaborative Computational Project, Number 4, 1994]). The structure of the MCAK motor-tail complex was solved by molecular replacement using the program MOLREP. The MCAK motor domain structure (PDB code: 2HEH) was used as a search model. Structure refinement was performed using Refmac5 and Phenix ([Adams et al., 2010]). Figures were prepared using PyMOL ([Delano, 2002]).

[2] = system: MCAK motor domain (Cys287); test: Covalent (disulphide) attachment of the CT domain to the motor domain; format: binding, human
Method: The GST-CTE712C and CTE712C domains were cross-linked to the motor domain by incubating them with the motor domain in a buffer containing 100 mM HEPES, pH 7.4, 150 mM NaCl but lacking DTT for 1 hr at 4°C. As a negative control the motor domain and the CTE712C domain were incubated in the identical buffer, supplemented with 5 mM DTT.

[3] = system: taxol-stabilized microtubules; test: Microtubule cosedimentation assay, untreated microtubules; format: binding; settings: for detection of CT domain in microtubule-bound pellet / supernatant: western blot, 50 nM motor domain, with and without DTT
Method: Full-length MCAK complex was diluted in S buffer (50 mM NaCl, 20 mM Hepes pH 7.0) to 50 nM, in absence of nucleotide to prevent MCAK-dependent microtubule depolymerisation. To assemble an MCAK motor-CT domain complex, 50 nM of the motor domain and 100 nM of the CT domain were used. Microtubule binding assays were performed as described ([Cheeseman et al., 2006]) using equal volumes of taxol-stabilized microtubules in BRB80 and MCAK in S buffer. MCAK was quantified using anti-MCAK antibody against the C terminus of MCAK (709[…]720), generated by GL Biochem (Shangai) Ltd (China) or anti-His antibody to probe for the motor domain alone (GE Healthcare Lifesciences, UK). The data from at least three independent experiments were fitted to a modified Hill equation to determine the apparent Kd.

[4] = system: taxol-stabilized microtubules; test: Microtubule depolymerisation assay; format: biochemical
Method: Microtubule depolymerization assays were performed essentially as described previously ([Hertzer et al., 2006]). MCAK was diluted to 100 nM in S-buffer containing 1 mM DTT and 2 mM Mg-ATP. For depolymerization assays of the motor domain in presence of the CT domain after GST cleavage and removal, 50 nM of motor domain and 100 nM of the CT domain were used. The microtubule depolymerization assay was initiated by the addition of 2 μM taxol-stabilized microtubules to a reaction buffer containing MCAK. Reactions were incubated at room temperature with increasing times and followed by centrifugation to separate microtubules from free tubulin. The data are represented as mean ± SD from three independent experiments.

MCAK motor domain [5] = molecular target: T1, MCAK motor domain; test: Analytical size-exclusion chromatography (motor-CT complex formation); format: binding; settings: Superdex 75 or Superose 6 10/300 GL; Coomassie-stained gel of fractions
Description: Full-length MCAK is a dimer in solution ([Maney et al., 2001]). Therefore, we sought to test whether the CT domain interacts with one or two motor domains. To define the stoichiometry of this interaction, we subjected the complex to analytical size-exclusion chromatography. The motor domain alone behaves as a monomer and eluted with an apparent size of ∼45 kDa. […] Using SDS-PAGE analysis, we confirmed that the shift to a larger complex was due to the interaction of the motor domain with the CT domain (Figure 1C, bottom). […] The predicted masses for complexes of one and two CT domains bound to two motor domains are ∼94.2 and 97.7 kDa, respectively. […] Since the CT domain is unlikely to dimerize alone (Figure 1B), we conclude that the MCAK CT domain induces the dimerization of the motor domains cooperatively.
Protein expression was induced by addition of 0.5 mM IPTG to BL21(DE3) Codon plus cells transformed with respective constructs at OD600 of 0.7–0.8 for 16 hr at 18°C. Cells were lysed by sonication in lysis buffer (50 mM Hepes, pH 7.4, 200 mM NaCl, 1 mM MgCl2, 1 mM PMSF, 1 mg/ml DNaseI, 2 mg/ml lysozyme, 10 mM Imidazole) and clarified at 20,000 rpm for 1 hr at 4°C. His-tagged and GST-tagged proteins were subsequently purified using Ni-NTA–agarose beads and glutathione-sepharose beads, respectively (GE Healthcare Life Sciences, UK)) according to the manufacturer's guidelines. MCAK constructs containing the motor domain were eluted with elution buffer (50 mM Hepes, pH 7.4, 200 mM NaCl, 1 mM MgCl2, 1 mM ATP, and 300 mM imidazole). Cleavage of the GST tag was performed using the GST-3C protease overnight at 4°C. […] Protein concentrations were determined with a combination of Bradford protein assays and densitometry of Coomassie-stained gels relative to a BSA standard. […]

GST-CT domain = test: Resin-based binding assay, CT domain self-interaction (CT domain to GST-CT); set-up: species or system human; settings: GST-CT on glutathione agarose; GST-cleaved CT domain
Description: Kinesin-1 is regulated through an auto-inhibitory mechanism whereby one C-terminal tail binds at the interface of the two motors, such that it creates a second point of attachment in addition to the coiled coil region. This limits the head movement of one kinesin with respect to the other ([Stock et al., 1999]; [Hackney and Stock, 2000]; [Kaan et al., 2011]). We sought to test whether the C-terminal tail domain of MCAK, which has been proposed to regulate MCAK activity ([Moore and Wordeman, 2004]), was sufficient to interact with the motor domain. To do this, we expressed the N-terminal and motor region (residues 1–583, termed NM) or the motor region of MCAK along with the neck linker region (residues 181–583, termed M) as His-tagged proteins, and the C-terminal MCAK tail (residues 700–725, termed CT domain) as a GST fusion protein ([Moore and Wordeman, 2004]; [Hertzer et al., 2006]) (Figure 1A). […] We cannot however exclude a very tight interaction between two CT domains. […]
Protein expression was induced by addition of 0.5 mM IPTG to BL21(DE3) Codon plus cells transformed with respective constructs at OD600 of 0.7–0.8 for 16 hr at 18°C. […] Protein concentrations were determined with a combination of Bradford protein assays and densitometry of Coomassie-stained gels relative to a BSA standard. […]

T1 sequence (Q99661 183-583): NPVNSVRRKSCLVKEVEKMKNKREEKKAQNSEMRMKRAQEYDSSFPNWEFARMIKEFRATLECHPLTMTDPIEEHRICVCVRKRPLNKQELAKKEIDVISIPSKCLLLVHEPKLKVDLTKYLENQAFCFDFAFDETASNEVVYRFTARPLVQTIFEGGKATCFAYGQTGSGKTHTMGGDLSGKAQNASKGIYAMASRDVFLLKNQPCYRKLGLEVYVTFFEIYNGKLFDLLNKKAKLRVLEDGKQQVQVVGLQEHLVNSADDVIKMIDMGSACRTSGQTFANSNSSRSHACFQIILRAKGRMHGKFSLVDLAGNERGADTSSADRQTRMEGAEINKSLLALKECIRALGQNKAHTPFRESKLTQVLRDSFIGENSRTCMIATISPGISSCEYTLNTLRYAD

Row | Substance | binding mode in crystal structure (MCAK motor domain [1]; 3 Å, peptide 709QLEEQASRQISS720) | binding to MCAK motor, presence of DTT ([2]; 5 mM DTT) | non-covalently bound MCAK fraction ([2]; motor-CTE712C domain complex, absence of DTT, Figure 6—figure supplement 1F) | formation of covalent complex with motor ([2]; oxidizing conditions (without DTT), 100 mM HEPES pH 7.4, 150 mM NaCl, 1 hr at 4°C) | reduction of fraction of MCAK motor bound to microtubules ([3]; 50 nM motor domain + CTE712C domain, oxidizing conditions (no DTT), absence of nucleotide) [%] | detection of CT domain in microtubule-bound pellet / supernatant [3] | microtubule depolymerase activity of motor with CTE712C domain, absence of DTT ([4]; 50 nM motor domain, 100 nM CTE712C domain, 2 μM taxol-stabilized microtubules, no DTT, apparent activity) | microtubule depolymerase activity of motor with CTE712C domain, presence of DTT ([4]; 50 nM motor domain, 100 nM CTE712C domain, 2 μM taxol-stabilized microtubules, with DTT) | specific depolymerase activity of covalent MCAK motor-CTE712C complex ([4]; calculated by subtracting activity of motor alone (~50% of population)) | binding to / co-migration with motor domain by gel filtration (MCAK motor domain [5]) | effect of free CT domain on MCAKS715E binding to microtubules ([3]; 100 nM full-length MCAKS715E, 2 μM taxol-stabilized microtubules, increasing free CT or CTS715E, repeated three times) | interaction of CT domain with itself (GST-CT domain) | RMSD of overall structure of MCAK on CT domain binding (MCAK motor domain [1]; 3 Å crystal structure) [Å]
1 | 709QLEEQASRQISS720 [chemically synthesized peptide corresponding to the CT domain] | a single CT domain binds to both motor domains, close to their neck linker regions |  |  |  |  |  |  |  |  |  |  |  | 
2 | CTE712C: CT domain with Glu712 mutated to cysteine, forms disulphide bridge with motor Cys287 (VIKALRLAMQLECQASRQISSKKRPQ; also: Cys712 forms disulfide with motor Cys287; UniProt Q99661 700-725, looked up, fragment E712C) |  | did not bind the MCAK motor | 45–50% | formed a covalent complex | ~50 | did not detect | displayed reduced depolymerase activity | the depolymerase activity was similar to that of the wild type MCAK motor alone | strongly inhibits the depolymerase activity of MCAK |  |  |  | 
3 | GPLGSIKALRLAMQLEEQASRQISSKKRPQ-OH [CT domain] |  |  |  |  |  | did not detect |  |  |  | bound the motor domain independently of the GST; also recorded: the elution peak shifted to an earlier fraction, suggesting dimerization of the MCAK motor | decreased the affinity of MCAKS715E for microtubules | unable to interact with itself through dimerization | 0.863
